Laboratory results: patent US10047081B2, “BACE1 inhibitors” (Hoffmann-La Roche Inc., priority 2015, dated 2018)

Target: T1, BACE1 (Homo sapiens, UniProt P56817)
T1 construct: endogenous in cells; host or cells: HEK293 APP cells
Experiment: Cellular Aβ-lowering assay (Abeta 40 AlphaLISA, HEK293 APP cells)
Type: cell-based
Settings: 18-20 hrs incubation, Aβ 40 in culture supernatant, read-out: BACE1 cell act. Aβ40 IC50
Method: Cellular Aβ-Lowering Assay:
The Abeta 40 AlphaLISA Assay can be used. The HEK293 APP cells were seeded in 96 well Microtiter plates in cell culture medium (Iscove's, plus 10% (v/v) fetal bovine serum, penicillin/streptomycin) to about 80% confluency and the compounds were added at a 3× concentration in ⅓ volume of culture medium (final DMSO concentration was kept at 1% v/v). After 18-20 hrs incubation at 37° C. and 5% CO2 in a humidified incubator, the culture supernatants were harvested for the determination of Aβ 40 concentrations using Perkin-Elmer Human Amyloid beta 1-40 (high specificity) Kit (Cat#AL275C).
In a Perkin-Elmer White Optiplate-384 (Cat#6007290), 2 ul culture supernatants were combined with 2 μl of a 10× AlphaLISA Anti-hAβAcceptor beads + Biotinylated Antibody Anti-Aβ 1-40 Mix (50 μg/mL/5 nM). After 1 hour room temperature incubation, 16 μl of a 1.25× preparation of Streptavidin (SA) Donor beads (25 μg/mL) were added and incubated for 30 minutes in the Dark. Light Emission at 615 nm was then recorded using EnVision-Alpha Reader. Levels of Aβ 40 in the culture supernatants were calculated as percentage of maximum signal (cells treated with 1% DMSO without inhibitor). The IC50 values were calculated using the Excel XLfit software.

T1 sequence (P56817 46-501): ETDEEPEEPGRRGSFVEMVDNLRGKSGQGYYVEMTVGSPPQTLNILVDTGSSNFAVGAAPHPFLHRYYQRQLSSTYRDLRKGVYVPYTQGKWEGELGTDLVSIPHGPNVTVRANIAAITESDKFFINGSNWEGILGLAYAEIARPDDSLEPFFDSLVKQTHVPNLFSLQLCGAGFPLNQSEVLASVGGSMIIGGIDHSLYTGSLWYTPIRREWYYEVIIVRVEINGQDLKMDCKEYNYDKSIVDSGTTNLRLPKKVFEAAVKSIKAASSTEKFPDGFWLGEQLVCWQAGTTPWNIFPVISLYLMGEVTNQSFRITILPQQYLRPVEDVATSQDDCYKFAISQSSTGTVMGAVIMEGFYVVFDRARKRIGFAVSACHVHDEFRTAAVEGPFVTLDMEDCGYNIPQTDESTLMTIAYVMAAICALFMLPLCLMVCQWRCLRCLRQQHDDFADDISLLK

| SMILES | IC50 |
| --- | --- |
| CN=[S@@]1(=O)C[C@@](C)(c2cc(-c3cc(-c4ncc(OC)cn4)no3)ccc2F)N=C(N)C12CCCC2 [Example 29, (6R,8R)-10-amino-8-(2-fluoro-5-(3-(5-methoxypyrimidin-2-yl)isoxazol-5-yl)phenyl)-8-methyl-6-(methylimino)-6-thia-9-azaspiro[4.5]dec-9-ene 6-oxide 2,2,2-trifluoroacetate] | 20 nM |
| CN=[S@@]1(=O)C[C@@](CF)(c2cc(-c3cc(-c4cnc(OCC(F)F)cn4)no3)ccc2F)N=C(N)C1(C)C [Example 4, (1R,3S)-5-amino-3-(5-(3-(5-(2,2-difluoroethoxy)pyrazin-2-yl)isoxazol-5-yl)-2-fluorophenyl)-3-(fluoromethyl)-6,6-dimethyl-1-(methylimino)-3,6-dihydro-2H-1,4-thiazine 1-oxide 2,2,2-trifluoroacetate] | 111 nM |
| CN=[S@@]1(=O)C[C@@](C)(c2cc(-c3cn(-c4ccc(Cl)cn4)nn3)ccc2F)N=C(N)C1(C)C [Example 9, (1R,3R)-5-amino-3-(5-(1-(5-chloropyridin-2-yl)-1H-1,2,3-triazol-4-yl)-2-fluorophenyl)-3,6,6-trimethyl-1-(methylimino)-3,6-dihydro-2H-1,4-thiazine 1-oxide 2,2,2-trifluoroacetate] | 17 nM |
| CC1(C)C(N)=N[C@](C)(c2cc(-c3cc(-c4ncc(Cl)cn4)no3)ccc2F)C[S@@]1(=O)=NC1CC1 [Example 36, (1S,3R)-5-amino-3-(5-(3-(5-chloropyrimidin-2-yl)isoxazol-5-yl)-2-fluorophenyl)-1-(cyclopropylimino)-3,6,6-trimethyl-3,6-dihydro-2H-1,4-thiazine 1-oxide 2,2,2-trifluoroacetate] | 7 nM |
| CN=[S@@]1(=O)C[C@@](CF)(c2cc(-c3cn(-c4ccc(Cl)cn4)nn3)ccc2F)N=C(N)C1(C)C [Example 16, (1R,3S)-5-amino-3-(5-(1-(5-chloropyridin-2-yl)-1H-1,2,3-triazol-4-yl)-2-fluorophenyl)-3-(fluoromethyl)-6,6-dimethyl-1-(methylimino)-3,6-dihydro-2H-1,4-thiazine 1-oxide 2,2,2-trifluoroacetate] | 156 nM |
| CC1(C)C(N)=N[C@](C)(c2cc(-c3cc(-c4ncc(Cl)cn4)no3)ccc2F)C[S@@]1(=O)=NCC(F)(F)F [Example 38, (1S,3R)-5-amino-3-(5-(3-(5-chloropyrimidin-2-yl)isoxazol-5-yl)-2-fluorophenyl)-3,6,6-trimethyl-1-((2,2,2-trifluoroethyl)imino)-3,6-dihydro-2H-1,4-thiazine 1-oxide 2,2,2-trifluoroacetate] | 13 nM |
| CC1(C)C(N)=N[C@](C)(c2cc(-c3cc(-c4ncc(Cl)cn4)no3)ccc2F)C[S@]1(=O)=NC1CC1 [Example 34, (1R,3R)-3-[5-[3-(5-chloropyrimidin-2-yl)isoxazol-5-yl]-2-fluoro-phenyl]-1-cyclopropylimino-3,6,6-trimethyl-1-oxo-2H-1,4-thiazin-5-amine 2,2,2-trifluoroacetate] | 13 nM |
| CN=[S@]1(=O)C[C@@](CF)(c2cc(-c3cc(-c4ncc(OC)cn4)no3)ccc2F)N=C(N)C1(C)C [Example 13, (1S,3S)-5-amino-3-(2-fluoro-5-(3-(5-methoxypyrimidin-2-yl)isoxazol-5-yl)phenyl)-3-(fluoromethyl)-6,6-dimethyl-1-(methylimino)-3,6-dihydro-2H-1,4-thiazine 1-oxide] | 106 nM |
| CN=[S@@]1(=O)C[C@@](C)(c2cc(-c3cc(-c4cnc(OCC(F)F)cn4)no3)ccc2F)N=C(N)C12CCCC2 [Example 30, (6R,8R)-10-amino-8-(5-(3-(5-(2,2-difluoroethoxy)pyrazin-2-yl)isoxazol-5-yl)-2-fluorophenyl)-8-methyl-6-(methylimino)-6-thia-9-azaspiro[4.5]dec-9-ene 6-oxide] | 104 nM |
| CN=[S@]1(=O)C[C@@](C)(c2cc(-c3cc(-c4ncc(Cl)cn4)no3)ccc2F)N=C(N)C1(C)C [Example 12, (1S,3R)-5-amino-3-(5-(3-(5-chloropyrimidin-2-yl)isoxazol-5-yl)-2-fluorophenyl)-3,6,6-trimethyl-1-(methylimino)-3,6-dihydro-2H-1,4-thiazine 1-oxide 2,2,2-trifluoroacetate] | 19 nM |
| COc1cnc(-c2cc(-c3ccc(F)c([C@]4(C)C[S@](=O)(=NCC(F)(F)F)C(C)(C)C(N)=N4)c3)on2)cn1 [Example 39, (1R,3R)-5-amino-3-(2-fluoro-5-(3-(5-methoxypyrazin-2-yl)isoxazol-5-yl)phenyl)-3,6,6-trimethyl-1-((2,2,2-trifluoroethyl)imino)-3,6-dihydro-2H-1,4-thiazine 1-oxide 2,2,2-trifluoroacetate] | 232 nM |
| CC1(C)C(N)=N[C@](C)(c2cc(-c3cc(-c4ncc(Cl)cn4)no3)ccc2F)C[S@]1(=O)=NCC(F)(F)F [Example 40, (1R,3R)-5-amino-3-(5-(3-(5-chloropyrimidin-2-yl)isoxazol-5-yl)-2-fluorophenyl)-3,6,6-trimethyl-1-((2,2,2-trifluoroethyl)imino)-3,6-dihydro-2H-1,4-thiazine 1-oxide 2,2,2-trifluoroacetate] | 37 nM |
| CN=[S@@]1(=O)C[C@@](CF)(c2cc(-c3cc(-c4ncc(Cl)cn4)no3)ccc2F)N=C(N)C1(C)C [Example 3, (1R,3S)-5-amino-3-(5-(3-(5-chloropyrimidin-2-yl)isoxazol-5-yl)-2-fluorophenyl)-3-(fluoromethyl)-6,6-dimethyl-1-(methylimino)-3,6-dihydro-2H-1,4-thiazine 1-oxide 2,2,2-trifluoroacetate] | 89 nM |
| COc1cnc(-c2cc(-c3ccc(F)c([C@]4(C)C[S@](=O)(=NC5CC5)C(C)(C)C(N)=N4)c3)on2)cn1 [Example 33, (1R,3R)-5-amino-1-(cyclopropylimino)-3-(2-fluoro-5-(3-(5-methoxypyrazin-2-yl)isoxazol-5-yl)phenyl)-3,6,6-trimethyl-3,6-dihydro-2H-1,4-thiazine 1-oxide] | 92 nM |
| CN=[S@@]1(=O)C[C@@](CF)(c2cc(-c3cn(-c4ccc(C#N)cn4)nn3)ccc2F)N=C(N)C1(C)C [Example 14, 6-(4-(3-((1R,3S)-5-amino-3-(fluoromethyl)-6,6-dimethyl-1-(methylimino)-1-oxido-3,6-dihydro-2H-1,4-thiazin-3-yl)-4-fluorophenyl)-1H-1,2,3-triazol-1-yl)nicotinonitrile 2,2,2-trifluoroacetate] | 103 nM |
| CN=[S@@]1(=O)C[C@@](C)(c2cc(-c3cc(-c4cnc(OCC5CC5)cn4)no3)ccc2F)N=C(N)C1(C)C [Example 22, (1R,3R)-5-amino-3-(5-(3-(5-(cyclopropylmethoxy)pyrazin-2-yl)isoxazol-5-yl)-2-fluorophenyl)-3,6,6-trimethyl-1-(methylimino)-3,6-dihydro-2H-1,4-thiazine 1-oxide] | 61 nM |
| CN=[S@@]1(=O)C[C@@](CF)(c2cc(-c3cc(-c4ncc(OC)cn4)no3)ccc2F)N=C(N)C1(C)C [Example 17, (1R,3S)-3-[2-fluoro-5-[3-(5-methoxypyrimidin-2-yl)isoxazol-5-yl]phenyl]-3-(fluoromethyl)-6,6-dimethyl-1-methylimino-1-oxo-2H-1,4-thiazin-5-amine] | 119 nM |
